Values of other authors as cited in patent US7094805B2, “Total synthesis of merrilactone A” (The Trustees of Columbia University in the City of New York, priority 2001, dated 2006).

System: fetal rat cortical neurons

## C[C@@]12COC(=O)[C@]1(C)[C@@H]1O[C@]3(C)[C@@H](O)C[C@]24OC(=O)C[C@]143 (racemic) [compound 1, merrilactone A]
General statement
  promotion of neurite outgrowth: promote neurite outgrowth
Preliminary studies, natural merrilactone A, "at concentrations as low as"
  concentrations at which neurite outgrowth is greatly promoted: 0.1 to 10 µmol
